Measured values as given in patent US7598397B2, “Sulfonamide peri-substituted bicyclics for occlusive artery disease” (deCODE genetics ehf, priority 2004, dated 2009).

Target: T1, prostanoid EP3 receptors (Homo sapiens, UniProt P43115)
T1 sequence (P43115 1-390): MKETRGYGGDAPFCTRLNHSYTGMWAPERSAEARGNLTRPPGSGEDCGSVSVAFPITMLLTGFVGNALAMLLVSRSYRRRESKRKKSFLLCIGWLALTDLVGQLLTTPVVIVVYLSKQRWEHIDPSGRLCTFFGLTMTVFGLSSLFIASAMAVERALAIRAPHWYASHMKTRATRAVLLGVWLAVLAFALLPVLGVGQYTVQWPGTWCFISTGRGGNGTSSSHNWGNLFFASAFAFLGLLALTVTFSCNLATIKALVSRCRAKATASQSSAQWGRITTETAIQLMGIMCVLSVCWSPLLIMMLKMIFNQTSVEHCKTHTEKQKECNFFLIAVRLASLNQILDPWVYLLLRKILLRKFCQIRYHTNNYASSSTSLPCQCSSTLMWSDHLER
Experiment: binding on prostanoid EP3 receptors (method of Abramovitz et al.)
Conditions: read-out: Activity (EP3 receptor binding, IC50 class)
Procedure: The compounds of the invention were assayed for their binding on prostanoid EP3 receptors according to the method of Abramovitz et al. [Bioch. Biophys.

Row | Structure (SMILES) | IC50 [µM]
1 | Cc1cn(Cc2ccccc2C#N)c2c(/C=C/C(=O)NS(=O)(=O)c3cc(Cl)c(Cl)s3)cc(F)cc12 [Compound P389] | < 1
2 | Cn1cc(C=CC(=O)NS(=O)(=O)c2ccc(F)c(F)c2)c2c(Oc3cnc4ccccc4n3)cccc21 [Compound P393] | < 1
3 | Cn1cc(C=CC(=O)NS(=O)(=O)c2cc(F)c(F)cc2F)c2c(Oc3cnc4ccccc4n3)cccc21 [Compound P394] | < 1
4 | O=Cc1cn(Cc2ccc(Cl)cc2Cl)c2c(C=CC(=O)NS(=O)(=O)c3cc(Cl)c(Cl)s3)cc(F)cc12 [Compound P396] | < 1
5 | O=C(C=Cc1cc(F)cc2c(CO)cn(Cc3ccc(Cl)cc3Cl)c12)NS(=O)(=O)c1cc(Cl)c(Cl)s1 [Compound P397] | < 1
6 | O=C(C=Cc1cc(F)cc2c(C(=O)O)cn(Cc3ccc(Cl)cc3Cl)c12)NS(=O)(=O)c1cc(Cl)c(Cl)s1 [Compound P398] | < 1
7 | Cc1cn(Cc2cn3ccccc3n2)c2c(/C=C/C(=O)NS(=O)(=O)c3cccc(Cl)c3)cc(F)cc12 [Compound P400] | < 1
8 | Cc1cn(Cc2cn3ccccc3n2)c2c(C=CC(=O)NS(=O)(=O)c3cccc(F)c3)cc(F)cc12 [Compound P401] | < 1
9 | Cc1cn(Cc2cn3ccccc3n2)c2c(C=CC(=O)NS(=O)(=O)c3cc(F)c(F)cc3F)cc(F)cc12 [Compound P402] | < 1
10 | Cc1cn(Cc2cn3ccccc3n2)c2c(C=CC(=O)NS(=O)(=O)c3ccc(Cl)cc3)cc(F)cc12 [Compound P405] | < 1
11 | Cc1cn(Cc2cn3ccccc3n2)c2c(C=CC(=O)NS(=O)(=O)c3ccc(Cl)c(Cl)c3)cc(F)cc12 [Compound P406] | < 1
12 | Cc1cn(Cc2cn3ccccc3n2)c2c(C=CC(=O)NS(=O)(=O)c3cc(F)ccc3F)cc(F)cc12 [Compound P407] | < 1
13 | Cc1cn(Cc2cn3ccccc3n2)c2c(C=CC(=O)NS(=O)(=O)c3cc(Cl)cc(Cl)c3)cc(F)cc12 [Compound P408] | < 1
14 | Cc1cn(Cc2cn3ccccc3n2)c2c(C=CC(=O)NS(=O)(=O)c3ccccc3F)cc(F)cc12 [Compound P409] | < 1
15 | CC12CCCC(CCC(=O)NS(=O)(=O)c3cc(F)c(F)cc3F)C1N(Cc1ccc(F)c(F)c1)C(=O)C2 (centres unmarked) [Compound P410] | < 1
16 | Cn1cc(CCC(=O)NS(=O)(=O)c2cc(F)c(F)cc2F)c2c(Oc3ccc4ccccc4c3)cccc21 [Compound P412] | < 1
17 | Cc1cn(Cc2cn3ccccc3n2)c2c(C=CC(=O)NS(=O)(=O)c3ccc(F)cc3F)cc(F)cc12 [Compound P413] | < 1
18 | CC12CCCC(CCC(=O)NS(=O)(=O)c3cc(Cl)c(Cl)s3)C1N(Cc1ccc(F)c(F)c1)C(=O)C2 (centres unmarked) [Compound P415] | < 1
19 | O=C(C=Cc1cccc2c1N(Cc1ccc3ccccc3c1)C(=O)C2)NS(=O)(=O)c1cc(F)c(F)cc1F [Compound P416] | < 1
20 | Cc1cn(Cc2ccc(Cl)cc2Cl)c2c(C(=O)NS(=O)(=O)c3ccc(F)c(F)c3)cc(F)cc12 [Compound P417] | < 1
